Measured values: patent publication US20250235434A1, “RIFABUTIN ANALOGS FOR THE TREATMENT OF DISEASE” (BIOVERSYS AG, priority 2022, published 2025)
Converted amounts (≈) assume the structure as drawn. Read-outs that look alike come from different tables or passages of the source.

How the values were obtained:
Format in all cases: cell-based
[1] = tested on: M. tuberculosis H37Rv (ATCC 27294); assay: microbe, parasite or virus in culture; conditions: Mycobacterium tuberculosis, 120 h
[2] = tested on: M. smegmatis (ATCC 700084); assay: MIC against M. smegmatis (resazurin assay); conditions: Mycolicibacterium smegmatis, ATCC700084, Middlebrook 7H9 + ADC, 90% growth inhibition, 20 h
[3] = tested on: S. aureus (UAMS-1625 strain); assay: MIC by broth microdilution against S. aureus; conditions: Staphylococcus aureus, 20 h, read-out: MIC S. aureus
M. xenopi (ATCC 19250) = assay: MIC against M. xenopi (resazurin assay); conditions: Mycobacterium xenopi, ATCC19250, 168 h, Middlebrook 7H9 + ADC, 90% growth inhibition, 7 days
[4] = tested on: A. baumannii (HUMC1 strain); assay: MIC by broth microdilution against A. baumannii; conditions: Acinetobacter baumannii, RPMI medium supplemented with 10% FCS, 35° C. for 20 hours, visual reading
M. kansasii (ATCC 12478) = assay: MIC against M. kansasii (resazurin assay); conditions: Mycobacterium kansasii, ATCC12478, 168 h, Middlebrook 7H9 + ADC, 90% growth inhibition, 7 days
[5] = tested on: M. abscessus (ATCC 19977); assay: MIC by broth microdilution against M. abscessus; conditions: Mycobacteroides abscessus
M. avium (ATCC 25291) = assay: MIC against M. avium (resazurin assay); conditions: Mycobacterium avium, ATCC25291, 168 h, Middlebrook 7H9 + ADC, 90% growth inhibition, 7 days
[6] = ATCC19977, 20 h, ATCC 19977, Middlebrook 7H9 broth with ADC supplement, visual reading, read-out: MIC M. abscessus

Row | Structure (SMILES) | MIC [1] [mg/L] | MIC [2] [mg/L] | MIC [3] [mg/L] | MIC (M. xenopi (ATCC 19250)) [mg/L] | MIC [4] [mg/L] | MIC (M. kansasii (ATCC 12478)) [mg/L] | MIC [5, 6] [mg/L] | MIC (M. avium (ATCC 25291)) [mg/L] | MIC ([5]; ATCC19977, tested M. abscessus strains, read-out: MIC value on M. abscessus) [mg/L]
1 | CO[C@H]1/C=C/O[C@@]2(C)Oc3c(C)c(O)c4c(c3C2=O)C2=NC3(CCN(CC(C)C)CC3)NC2=C(NC(=O)/C(C)=C\C=C\[C@H](C)[C@H](O)[C@@H](C)[C@@H](O)[C@@H](C)[C@H](OC(=O)CN2CCC(NS(=O)(=O)c3ccccc3)CC2)[C@@H]1C)C4=O [Compound 29] | 0.003 (≈ 0.00276 µM) | 0.09 | 0.5 (≈ 0.461 µM) | 0.01 | 0.03 (≈ 0.0276 µM) | 0.01 | 0.25 (≈ 0.23 µM) | 0.6 | 
2 | CO[C@H]1/C=C/O[C@@]2(C)Oc3c(C)c(O)c4c(c3C2=O)C2=NC3(CCN(CC(C)C)CC3)NC2=C(NC(=O)/C(C)=C\C=C\[C@H](C)[C@H](O)[C@@H](C)[C@@H](O)[C@@H](C)[C@H](OC(=O)C[n+]2ccccc2)[C@@H]1C)C4=O [Compound 37] |  |  | 0.25 |  | 0.004 |  | 2 |  | 
3 | CO[C@H]1/C=C/O[C@@]2(C)Oc3c(C)c(O)c4c(c3C2=O)C2=NC3(CCN(CC(C)C)CC3)NC2=C(NC(=O)/C(C)=C\C=C\[C@H](C)[C@H](O)[C@@H](C)[C@@H](O)[C@@H](C)[C@H](OC(=O)CN2CC(Nc3ccc(F)cc3)C2)[C@@H]1C)C4=O [Compound 31] |  |  | 0.06 (≈ 0.0593 µM) |  | 0.008 (≈ 0.00791 µM) |  | 4 (≈ 3.96 µM) |  | 
4 | CO[C@H]1/C=C/O[C@@]2(C)Oc3c(C)c(O)c4c(c3C2=O)C2=NC3(CCN(CC(C)C)CC3)NC2=C(NC(=O)/C(C)=C\C=C\[C@H](C)[C@H](O)[C@@H](C)[C@@H](O)[C@@H](C)[C@H](OC(=O)C[n+]2ccc(C)cc2)[C@@H]1C)C4=O [Compound 38] |  |  | 0.25 |  | 0.004 |  | 2 |  | 
5 | CO[C@H]1/C=C/O[C@@]2(C)Oc3c(C)c(O)c4c(c3C2=O)C2=NC3(CCN(CC(C)C)CC3)NC2=C(NC(=O)/C(C)=C\C=C\[C@H](C)[C@H](O)[C@@H](C)[C@@H](O)[C@@H](C)[C@H](OC(=O)CNCC2CCN(C)CC2)[C@@H]1C)C4=O [Compound 1] |  |  | 0.06 (≈ 0.0617 µM) |  | ≤ 0.002 |  | 2 (≈ 2.06 µM) |  | 
6 | CO[C@H]1/C=C/O[C@@]2(C)Oc3c(C)c(O)c4c(O)c(c(/C=N/N5CCN(C)CC5)c(O)c4c3C2=O)NC(=O)/C(C)=C\C=C\[C@H](C)[C@H](O)[C@@H](C)[C@@H](O)[C@@H](C)[C@H](OC(C)=O)[C@@H]1C [Rifampicin, reference compound] |  |  |  |  |  |  |  |  | > 32
7 | CO[C@H]1/C=C/O[C@@]2(C)Oc3c(C)c(O)c4c(c3C2=O)C2=NC3(CCN(CC(C)C)CC3)NC2=C(NC(=O)/C(C)=C\C=C\[C@H](C)[C@H](O)[C@@H](C)[C@@H](O)[C@@H](C)[C@H](OC(=O)CN2CCC(N3CCn5ccnc5C3)CC2)[C@@H]1C)C4=O [Compound 30] |  |  | 0.06 (≈ 0.0571 µM) |  | ≤ 0.002 |  | 1 (≈ 0.951 µM) |  | 
8 | CO[C@H]1/C=C/O[C@@]2(C)Oc3c(C)c(O)c4c(c3C2=O)C2=NC3(CCN(CC(C)C)CC3)NC2=C(NC(=O)/C(C)=C\C=C\[C@H](C)[C@H](O)[C@@H](C)[C@@H](O)[C@@H](C)[C@H](OC(=O)CN2CC(n3cccc3)C2)[C@@H]1C)C4=O [Compound 32] |  |  | 0.03 (≈ 0.031 µM) |  | 0.008 (≈ 0.00827 µM) |  | 2 (≈ 2.07 µM) |  | 
9 | CO[C@H]1/C=C/O[C@@]2(C)Oc3c(C)c(O)c4c(c3C2=O)C2=NC3(CCN(CC(C)C)CC3)NC2=C(NC(=O)/C(C)=C\C=C\[C@H](C)[C@H](O)[C@@H](C)[C@@H](O)[C@@H](C)[C@H](OC(=O)CNCCN2CCN(C)CC2)[C@@H]1C)C4=O [Compound 9] |  |  | 0.06 (≈ 0.0607 µM) |  | ≤ 0.002 |  | 2 (≈ 2.02 µM) |  | 
10 | CO[C@H]1/C=C/O[C@@]2(C)Oc3c(C)c(O)c4c(c3C2=O)C2=NC3(CCN(CC(C)C)CC3)NC2=C(NC(=O)/C(C)=C\C=C\[C@H](C)[C@H](O)[C@@H](C)[C@@H](O)[C@@H](C)[C@H](OC(=O)CNCCCN2CCOCC2)[C@@H]1C)C4=O [Compound 11] |  |  | 0.06 (≈ 0.0607 µM) |  | 0.008 (≈ 0.00809 µM) |  | 2 (≈ 2.02 µM) |  | 
11 | CC[N+](CC)(CC)CC(=O)O[C@H]1[C@H](C)[C@H](O)[C@H](C)[C@@H](O)[C@@H](C)/C=C/C=C(/C)C(=O)NC2=C3NC4(CCN(CC(C)C)CC4)N=C3c3c(c(O)c(C)c4c3C(=O)[C@@](C)(O/C=C/[C@H](OC)[C@H]1C)O4)C2=O [Compound 36] |  |  | 0.125 |  | ≤ 0.002 |  | 2 |  | 
12 | CO[C@H]1/C=C/O[C@@]2(C)Oc3c(C)c(O)c4c(c3C2=O)C2=NC3(CCN(CC(C)C)CC3)NC2=C(NC(=O)/C(C)=C\C=C\[C@H](C)[C@H](O)[C@@H](C)[C@@H](O)[C@@H](C)[C@H](OC(=O)CN2CCC(NC(=O)OC(C)(C)C)CC2)[C@@H]1C)C4=O [Compound 27] |  |  | 0.125 (≈ 0.12 µM) |  | 0.008 (≈ 0.00765 µM) |  | 0.25 (≈ 0.239 µM) |  | 
